Results from patent publication US5656600A, “α-ketoamide derivatives as inhibitors of thrombosis” (Corvas International, Inc., priority 1993, dated 1997).

Columns and labels:
α-thrombin [1] = target: T1, α-thrombin (Homo sapiens, UniProt P00734); experiment: Thrombin-induced clotting of purified fibrinogen; type: biochemical; conditions: preincubation with α-thrombin up to 60 minutes before fibrinogen
Protocol: Inhibition is reflected as an increase in the relative clotting time which is the ratio of the […]. The control clotting time in this assay is 16.2±0.78 sec.
The clotting time of fibrinogen following the addition of the thrombin/inhibitor complex was measured optically using the Coag-A-Mate XC automated coagulometer (General Diagnostics, Organon Technica, Oklahoma City, OK). […] Haemostas., 69:130-134 (1993).

[2] = test system: pooled normal human plasma; experiment: Ex vivo coagulation assay (APTT); conditions: normal citrated human plasma; FIG. 3
Protocol: Fresh frozen pooled normal human plasma was obtained from George King Biomedical, Overland Park, KA. Measurements APTT was made using the Coag-A-Mate RA4 automated coagulometer (General Diagnostics, Organon Technica, Oklahoma City, OK) using the Automated APTT reagent (Organon Technica, Durham, NC) as the initiator of clotting according to the manufacturers instructions. The assay was conducted by making a series of dilutions of the test compounds in rapidly thawed plasma followed by adding 200 μL to the wells of the assay carousel.

thrombin = thrombin (Homo sapiens, UniProt P00734); conditions: literature values; read-out: Ki (thrombin), reported; cited from earlier work
α-thrombin [3] = target: T1, α-thrombin; experiment: Amidolytic thrombin assay (inhibition constant Ki); type: biochemical
Protocol: The ability of the compounds of the present invention to act as inhibitors of thrombin catalytic activity in comparison to Hirulog-1 (compound 25) was assessed by determining their inhibition constant, Ki.
Enzyme activity was determined using the chromogenic substrate Pefachrome t-PA (CH3 SO2 -D-hexahydrotyrosine-glycyl-L-arginine-p-nitroaniline, obtained from Pentapharm Ltd.). The substrate was reconstituted in deionized water prior to use.
Ki values were determined for test compounds using the following methodologies:
The assay was conducted by combining in appropriate wells of a Corning microtiter plate, 50 μL of HBSA, 50 μL of the test compound at a specified concentration diluted in HBSA (or HBSA alone for Vo(uninhibited velocity) measurement), and 50 μL of the chromogenic substrate diluted in HBSA. At time zero, 50 μL of α-thrombin diluted in HBSA, was added to the wells yielding a final concentration of 0.25 nM in a total volume of 200 μL. Velocities of Pefachrome-tPA substrate hydrolysis which occurred over a 40 minute time period was measured by the change in absorbance at 405 nm using a Thermo Max® Kinetic Microplate Reader. […] The linear relationship between kobs and inhibitor concentration is indicative of a competitive, one step mechanism and was used to calculate kon and koff which yielded a value for Ki after taking into consideration the concentration and Km (38.5 μM) of the substrate in the assay.
The initial velocity of Pefachrome t-PA hydrolysis was measured by the change in absorbance at 405 nm using a Thermo Max® Kinetic Microplate Reader over a 2 minute period in which less than 5% of the added substrate was utilized. The relationship between the ratio of the inhibited steady-state velocity (Vs) and the uninhibited velocity (Vo) to the concentration of inhibitor [It ], was analyzed using Equation 1 developed by Morrison , J. F., Biochim. Biophys. Acta, 185:269 (1969) for inhibitors which deplete a significant amount of the total enzyme (Et) over the course of the assay (designated tight binding inhibitors):
Vs/Vo={([Et ]-[It ]-Ki*)+[([It ]+Ki*-[Et ])^2
Ki* was determined by fitting Vs/Vo verses [I] using Equation 1 by non-linear regression analysis.
The best fit of the data for both compounds was to the equation describing competitive inhibition.

Substance: (D--Phe)--Pro--Arg--Pro--(Gly4 --Asn--Gly--Asp--Phe--Glu--Glu--IIe--Pro--Glu--Glu--Tyr--Leu--OH [Compound 25]
- proteolytic inactivation by thrombin upon prolonged incubation (α-thrombin [1]): sensitive to proteolytic degradation with re-emergence of thrombin activity
- prolongation of activated partial thromboplastin time (APTT) [2]: prolonged the APTT in a dose dependent manner
- Ki (thrombin): 2.56 nM
- Ki (α-thrombin [3]; chromogenic substrate Pefachrome t-PA, HBSA pH 7.5, slow-binding (kon/koff) or Dixon analysis): 0.437 nM
- kinetics / mechanism of thrombin inhibition (α-thrombin [3]; in words): rapid, reversible kinetics of inhibition
